Laboratory results taken from ChEMBL document CHEMBL1914411, “Synthesis of lipophilic dimeric C-7/C-7-linked ciprofloxacin and C-6/C-6-linked levofloxacin derivatives. Versatile in vitro biological evaluations of monomeric and dimeric fluoroquinolone derivatives as potential antitumor, antibacterial or antimycobacterial agents” (Eur J Med Chem, 2011).
Converted amounts (≈) assume the structure as drawn. The source made the active and inactive calls.

How the values were obtained:
[1] = system: Mycobacterium tuberculosis; test: Antimycobacterial activity against Mycobacterium tuberculosis H37Rv assessed as growth inhibition at 10 uM after 6 days by MTT colorimetric microassay; type: functional; conditions: 144 h, read-out: GI
Escherichia coli = test: Antimicrobial activity against Escherichia coli CIP 53126 after 18 to 24 hrs by broth microdilution method; type: functional
[2] = system: Mycobacterium tuberculosis; test: Antimycobacterial activity against Mycobacterium tuberculosis H37Rv after 6 days by MTT colorimetric microassay; type: functional, organism-based; conditions: 144 h
Pseudomonas aeruginosa = test: Antimicrobial activity against Pseudomonas aeruginosa CIP 82.118 after 18 to 24 hrs by broth microdilution method; type: functional
Staphylococcus aureus [3] = test: Antimicrobial activity against Staphylococcus aureus CIP 4.83 after 18 to 24 hrs by broth microdilution method; type: functional
[4] = system: Mycobacterium tuberculosis; test: Antimycobacterial activity against Mycobacterium tuberculosis H37Rv assessed as growth inhibition at 0.1 uM after 6 days by MTT colorimetric microassay; type: functional, organism-based
Enterococcus hirae = test: Antimicrobial activity against Enterococcus hirae CIP 5855 after 18 to 24 hrs by broth microdilution method; type: functional
[5] = system: Mycobacterium tuberculosis; test: Antimycobacterial activity against Mycobacterium tuberculosis H37Rv assessed as growth inhibition at 1 uM after 6 days by MTT colorimetric microassay; type: functional; conditions: for inhibition of growth at 1 µM: 144 h, read-out: GI
Staphylococcus aureus [6] = test: Antimicrobial activity against methicillin-resistant Staphylococcus aureus ATCC 33592 after 18 to 24 hrs by broth microdilution method; type: functional
Staphylococcus aureus [7] = test: Antimicrobial activity against multidrug-resistant Staphylococcus aureus isolate 1 after 18 to 24 hrs by broth microdilution method; type: functional
Staphylococcus aureus [8] = test: Antimicrobial activity against multidrug-resistant Staphylococcus aureus isolate 2 after 18 to 24 hrs by broth microdilution method; type: functional
Staphylococcus aureus [9] = test: Antimicrobial activity against methicillin-resistant Staphylococcus aureus ATCC 33591 after 18 to 24 hrs by broth microdilution method; type: functional

Row | SMILES | inhibition of growth at 10 µM [1] | MBC (Escherichia coli) | MIC (Escherichia coli) | MIC [2] | MBC (Pseudomonas aeruginosa) | MIC (Pseudomonas aeruginosa) | MBC (Staphylococcus aureus [3]) | MIC (Staphylococcus aureus [3]) | growth inhibition (GI) [4] | MBC (Enterococcus hirae) | MIC (Enterococcus hirae) | inhibition of growth at 1 µM [5] | further results
1 | CCCCCCCCCCNC(=O)c1cn2c3c(c(N4CCN(C)CC4)c(F)cc3c1=O)OC[C@@H]2C | > 95% | 500 µM (≈ 250 µg/mL) | 125 µM (≈ 62.6 µg/mL) | 10 µM (≈ 5.01 µg/mL) | 250 µM (≈ 125 µg/mL) | 62.5 µM (≈ 31.3 µg/mL) | 7.8 µM (≈ 3.91 µg/mL) | 7.8 µM (≈ 3.91 µg/mL) | inactive | 15.6 µM (≈ 7.81 µg/mL) | 7.8 µM (≈ 3.91 µg/mL) | 5% | IC50 [2]: 5.8 µM
2 | O=C(CCCCCCCCC(=O)OCN1CCN(c2cc3c(cc2F)c(=O)c(C(=O)O)cn3C2CC2)CC1)OCN1CCN(c2cc3c(cc2F)c(=O)c(C(=O)O)cn3C2CC2)CC1 | 62% | 62.5 µM (≈ 55.6 µg/mL) | 31.2 µM (≈ 27.7 µg/mL) | – | 125 µM (≈ 111 µg/mL) | 31.2 µM (≈ 27.7 µg/mL) | 250 µM (≈ 222 µg/mL) | 31.2 µM (≈ 27.7 µg/mL) | inactive | 250 µM (≈ 222 µg/mL) | 62.5 µM (≈ 55.6 µg/mL) | – | –
3 | CCCCCCCCCCCC(=O)N1CCN(c2cc3c(cc2F)c(=O)c(C(=O)O)cn3C2CC2)CC1 | > 95% | 7.8 µM (≈ 4.01 µg/mL) | 7.8 µM (≈ 4.01 µg/mL) | – | 250 µM (≈ 128 µg/mL) | 62.5 µM (≈ 32.1 µg/mL) | 7.8 µM (≈ 4.01 µg/mL) | 3.9 µM (≈ 2 µg/mL) | inactive | 7.8 µM (≈ 4.01 µg/mL) | 7.8 µM (≈ 4.01 µg/mL) | 20% | –
4 | CCCCCCC(=O)N1CCN(c2cc3c(cc2F)c(=O)c(C(=O)O)cn3C2CC2)CC1 | > 95% | 31.2 µM (≈ 13.8 µg/mL) | 31.2 µM (≈ 13.8 µg/mL) | – | 250 µM (≈ 111 µg/mL) | 62.5 µM (≈ 27.7 µg/mL) | ≤ 0.12 µM | ≤ 0.03 µM | inactive | 31.2 µM (≈ 13.8 µg/mL) | 31.2 µM (≈ 13.8 µg/mL) | – | MBC (Staphylococcus aureus [6]): 0.24 µM (≈ 0.106 µg/mL); MIC (Staphylococcus aureus [6]): 0.06 µM (≈ 0.0266 µg/mL); MBC (Staphylococcus aureus [7]): 500 µM (≈ 222 µg/mL); MIC (Staphylococcus aureus [7]): 62.5 µM (≈ 27.7 µg/mL); MBC (Staphylococcus aureus [8]): > 500 µM; MIC (Staphylococcus aureus [8]): 250 µM (≈ 111 µg/mL); MBC (Staphylococcus aureus [9]): 0.48 µM (≈ 0.213 µg/mL); MIC (Staphylococcus aureus [9]): 0.06 µM (≈ 0.0266 µg/mL)
5 | C[C@H]1COc2c(N3CCN(C)CC3)c(F)cc3c(=O)c(C(=O)NCCCCCCCCNC(=O)c4cn5c6c(c(N7CCN(C)CC7)c(F)cc6c4=O)OC[C@@H]5C)cn1c23 | 60% | 3.9 µM (≈ 3.24 µg/mL) | 3.9 µM (≈ 3.24 µg/mL) | – | 250 µM (≈ 208 µg/mL) | 62.5 µM (≈ 51.9 µg/mL) | 15.6 µM (≈ 13 µg/mL) | 15.6 µM (≈ 13 µg/mL) | inactive | 125 µM (≈ 104 µg/mL) | 62.5 µM (≈ 51.9 µg/mL) | – | –
6 | CCCC(=O)OCOC(=O)c1cn2c3c(c(N4CCN(C)CC4)c(F)cc3c1=O)OC[C@@H]2C | > 95% | – | – | 2.5 µM (≈ 1.15 µg/mL) | – | – | – | – | inactive | – | – | 74% | IC50 [2]: 1.3 µM
7 | CCCCCCCCC(=O)N1CCN(c2cc3c(cc2F)c(=O)c(C(=O)O)cn3C2CC2)CC1 | > 95% | 500 µM (≈ 236 µg/mL) | 31.2 µM (≈ 14.7 µg/mL) | – | 250 µM (≈ 118 µg/mL) | 62.5 µM (≈ 29.5 µg/mL) | ≤ 0.03 µM | ≤ 0.97 µM | inactive | 31.2 µM (≈ 14.7 µg/mL) | 31.2 µM (≈ 14.7 µg/mL) | – | MBC (Staphylococcus aureus [6]): 0.24 µM (≈ 0.113 µg/mL); MIC (Staphylococcus aureus [6]): 0.12 µM (≈ 0.0566 µg/mL); MBC (Staphylococcus aureus [7]): 500 µM (≈ 236 µg/mL); MIC (Staphylococcus aureus [7]): 31.2 µM (≈ 14.7 µg/mL); MBC (Staphylococcus aureus [8]): 500 µM (≈ 236 µg/mL); MIC (Staphylococcus aureus [8]): 31.2 µM (≈ 14.7 µg/mL); MBC (Staphylococcus aureus [9]): 0.24 µM (≈ 0.113 µg/mL); MIC (Staphylococcus aureus [9]): 0.02 µM (≈ 0.00943 µg/mL)
8 | CCCCCCCC(=O)OCC(=O)N1CCN(c2cc3c(cc2F)c(=O)c(C(=O)O)cn3C2CC2)CC1 | > 95% | 62.5 µM (≈ 32.2 µg/mL) | 31.2 µM (≈ 16.1 µg/mL) | – | 250 µM (≈ 129 µg/mL) | 31.2 µM (≈ 16.1 µg/mL) | ≤ 0.001 µM | ≤ 0.001 µM | inactive | ≤ 0.97 µM | ≤ 0.97 µM | – | MBC (Staphylococcus aureus [6]): ≤ 0.001 µM; MIC (Staphylococcus aureus [6]): ≤ 0.001 µM; MBC (Staphylococcus aureus [7]): 500 µM (≈ 258 µg/mL); MIC (Staphylococcus aureus [7]): 7.8 µM (≈ 4.02 µg/mL); MBC (Staphylococcus aureus [8]): 15.6 µM (≈ 8.04 µg/mL); MIC (Staphylococcus aureus [8]): 15.6 µM (≈ 8.04 µg/mL); MIC (Staphylococcus aureus [9]): ≤ 0.001 µM
9 | CCCCCCCCCCCCCCCCCCCC(=O)OCOC(=O)c1cn2c3c(c(N4CCN(C)CC4)c(F)cc3c1=O)OC[C@@H]2C | – | – | – | – | – | – | – | – | inactive | – | – | – | growth inhibition (GI) [5]: inactive
10 | CCCCCCCCCCCCCNC(=O)c1cn2c3c(c(N4CCN(C)CC4)c(F)cc3c1=O)OC[C@@H]2C | > 95% | – | – | > 10 µM | – | – | – | – | inactive | – | – | 5% | –
11 | CCCCCCCC(=O)OCOC(=O)c1cn2c3c(c(N4CCN(C)CC4)c(F)cc3c1=O)OC[C@@H]2C | > 95% | – | – | 2.5 µM (≈ 1.29 µg/mL) | – | – | – | – | inactive | – | – | 74% | IC50 [2]: 1.3 µM
